In US10190104B2, “Isoform of anaplastic lymphoma kinase and its uses” (Memorial Sloan-Kettering Cancer Center, priority 2014, dated 2019):

Test system: ALK-transformed Ba/F3 cells
Assay: Cell viability assay of Ba/F3 cells expressing ALK isoforms treated with ALK inhibitors
Type: cell-based, murine
Conditions: cell viability after 72 hours; for IL-3-independent growth of ALK-transformed Ba/F3 cells: absence of IL-3, CellTiter-Glo; for growth in the presence of IL-3: presence of IL-3 (1 ng/ml)
Protocol: Ba/F3 cells were stably transduced with MSCV-ALK^variant-IRES-GFP constructs with a multiplicity of infection (MOI) of ˜0.26. Based on the MOI calculations, ˜78% of cells were uninfected, ˜20% of cells were infected with one virus particle, and ˜2% of cells were infected by more than one viral particle. Stably transduced Ba/F3 cells were cultured in RPMI medium supplemented with IL-3 (1 ng ml-1) and the transduction rate of 20% was validated using flow cytometry for GFP, that was co-expressed with the ALK variants. For the cell proliferation assay, transduced Ba/F3 cells were transferred into IL-3 depleted RPMI medium and cell growth was quantified every 2-4 days with a luminescence assay (#G7571, Promega). […] All drugs were suspended in DMSO. The cell viability was assessed after 72 hours by a luminescence assay CellTiter-Glo (#G7571, Promega). Results were normalized to growth of cells in a medium containing an equivalent volume of DMSO. The inhibition curve was determined with GraphPad Prism 6.0 software using the ‘log(inhibitor) vs. response variable slope’ non-linear regression model.

| Compound | IL-3-independent growth of ALK-transformed Ba/F3 cells | growth in the presence of IL-3 |
| --- | --- | --- |
| COc1cc(N2CCC(N3CCN(C)CC3)CC2)ccc1Nc1ncc(Cl)c(Nc2ccccc2S(=O)(=O)C(C)C)n1 [TAE-684, NVP-TAE684] | effectively inhibited | no effect |
| Cc1cc(Nc2ncc(Cl)c(Nc3ccccc3S(=O)(=O)C(C)C)n2)c(OC(C)C)cc1C1CCNCC1 [ceritinib] | effectively inhibited | no effect |
